Tested on: Botrytis cinerea
Experiment: Inhibition of growth of Botrytis cinerea by artificial VOC mixture and pure compounds, bi compartmentalized Petri dishes (vapour exposure)
Assay type: cell-based
Conditions: pure compounds at their relative proportion of 0.70 μl/mL mixture (ethanol 0.11, isobutyl acetate 0.14, isoamyl acetate 0.13, α-bisabolol 0.10 μl/mL head space); after four days
Procedure: For this, bi compartmentalized Petri dishes (94×16 mm) (Greiner, Germany) coated with culture medium were used, leaving a head space of 60 mL. One compartment was inoculated with mycelium (3 mm radius disk) of the saprophytic fungus (S. commune). The other compartment was inoculated with fresh mycelium of B. cinerea. In this bioassay there was no physical contact between the two fungi. The control treatment consisted of placing the mycelium of B. cinerea in only one of the compartments. All experimental units (Petri dishes) were covered and sealed with Parafilm M®, and incubated at 25° C. in the dark until the growth of any fungi (treatment and control) reached the edge of the central wall of the Petri dish. The mycelial growth was measured using a magnifying glass (Japan Optical), and data were expressed as percent of inhibition relative to control. Each treatment was repeated 10 times.
The inhibitory power of pure compounds and of a mixture based on their percent ratio were assessed. The methodology was similar to that detailed above to assess the antifungal activity of saprophytic fungus. The minimum inhibitory concentration (MIC) and lethal dose 50% (LD50) were calculated by interpolation according to the polynomial equation (Y=−194.565812×2+318.001954×−25.561441; r2=0.982) (See FIG. 2).
6 formulations were tested at laboratory level: […]
Formulation 2: 0.11 μl ethanol per 1 mL of head space volume (airspace).
Formulation 3: 0.14 μl of isobutyl acetate per 1 mL of head space volume (airspace).
Formulation 4: 0.13 μl of isoamyl acetate per 1 mL of head space volume (airspace).
Formulation 5: 0.10 μl of α-bisabolol per 1 mL of head space volume (airspace).
The effect of each formulation for inhibiting the growth of B. cinerea was tested using bi compartmentalized dishes, according to the above methodology.

Row | Compound | percent of inhibition of Botrytis cinerea growth
1 | CC(=O)OCCC(C)C [isoamyl acetate] | 77%
2 | CC(=O)OCC(C)C [isobutyl acetate] | 47%
3 | α-bisabolol | did not inhibit

From patent US9974301B2, “Fungicidal composition for controlling phytopathogenic diseases, comprising a mixture of the volatile compounds ethanol, 3-methylbutanol, isobutyl acetate, isoamyl acetate and alpha-bisabolol; and the use thereof for inhibiting the growth of the pathogenic fungus botrytis cinerea” (UNIVERSIDAD DE LA FRONTERA, priority 2013, dated 2018)
